Some test systems named below: LOX IMVI melanoma; OVCAR-8 ovarian; OVCAR-3 ovarian; HCT-116 colon; MCF7 breast; SK-OV-3 ovarian; HL-60(TB) leukemia; MDA-MB-435; MOLT-4 leukemia; CCRF-CEM leukemia.
What all share (assay): growth of human tumour cells (NCI), 48 h

Each structure is given as a SMILES string.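 48-hour exposure; five concentrations; linearly interpolated endpoints. GI50 is the concentration that inhibits growth by half. At the TGI there is no net growth.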

Turning to `CCOc1ccc(C(C[N+](=O)[O-])Sc2ccccc2N)cc1` (stereo not given), the GI50 was 1.44 µM in the experiment on LOX IMVI melanoma; 8.97 µM with OVCAR-8 ovarian; 2.92 µM in the experiment on OVCAR-3 ovarian; 1.7 µM in the experiment with HCT-116 colon; 1.71 µM in the experiment on MCF7 breast; 14.2 µM in the experiment on SK-OV-3 ovarian. For the same molecule, the GI50 with HL-60(TB) leukemia is 2.27 µM; in the experiment on MDA-MB-435, 2.25 µM; with MOLT-4 leukemia it was 3.73 µM; in the experiment with CCRF-CEM leukemia, 3.67 µM. Besides, the TGI in the experiment on LOX IMVI melanoma worked out at 2.92 µM; in the experiment on OVCAR-8 ovarian, 22.6 µM; in the experiment on OVCAR-3 ovarian, 12 µM; in the experiment on HCT-116 colon, 3.36 µM; in the experiment with MCF7 breast, 6.04 µM; in the experiment on SK-OV-3 ovarian, 27.2 µM. Moreover, the TGI in the experiment with HL-60(TB) leukemia came out at 6.59 µM; with MDA-MB-435, 6.95 µM; in the experiment on MOLT-4 leukemia it was 16.9 µM; with CCRF-CEM leukemia, 18.9 µM.
As to `Cc1nc2sc3c(N)ncnc3c2c(C)c1C`, the GI50 in the experiment with LOX IMVI melanoma, in the experiment with OVCAR-8 ovarian, in the experiment with OVCAR-3 ovarian, in the experiment on HCT-116 colon, with MCF7 breast and in the experiment with SK-OV-3 ovarian was over 25 µM throughout. For the same molecule, the GI50 in the experiment on HL-60(TB) leukemia, in the experiment with MDA-MB-435, in the experiment on MOLT-4 leukemia and with CCRF-CEM leukemia was over 25 µM throughout. Moreover, the TGI with LOX IMVI melanoma, in the experiment with OVCAR-8 ovarian, in the experiment on OVCAR-3 ovarian, in the experiment on HCT-116 colon, in the experiment on MCF7 breast and with SK-OV-3 ovarian was over 25 µM in each case. For the same molecule, the TGI with HL-60(TB) leukemia, in the experiment with MDA-MB-435, with MOLT-4 leukemia and in the experiment on CCRF-CEM leukemia was over 25 µM in each case.
With `Cn1cc(C2=C(c3cn(CCCN)c4ccccc34)C(=O)NC2=O)c2ccccc21`, the GI50 in the experiment with LOX IMVI melanoma is 3.4 µM; in the experiment with OVCAR-8 ovarian it was 5.46 µM; in the experiment on OVCAR-3 ovarian, 5.86 µM; in the experiment on HCT-116 colon, 3.48 µM; in the experiment with MCF7 breast, 3.55 µM; in the experiment with SK-OV-3 ovarian, 5.58 µM. Moreover, the GI50 in the experiment on HL-60(TB) leukemia is 5.04 µM; in the experiment with MDA-MB-435 it was 2.66 µM; in the experiment on MOLT-4 leukemia it was 6.06 µM; in the experiment with CCRF-CEM leukemia it was 2.59 µM. Moreover, the TGI in the experiment with LOX IMVI melanoma is 7.49 µM; in the experiment with OVCAR-8 ovarian, 14.7 µM; in the experiment with OVCAR-3 ovarian, 16.2 µM; in the experiment on HCT-116 colon, 10.1 µM; with MCF7 breast, 10.4 µM; in the experiment with SK-OV-3 ovarian, over 25 µM. Besides, the TGI in the experiment on HL-60(TB) leukemia turned out to be 11.6 µM; with MDA-MB-435, 6.62 µM; with MOLT-4 leukemia it was 18.5 µM; in the experiment on CCRF-CEM leukemia, 12.1 µM.
Consider `OC1CCCC2CCC[N-]C12.OC1CCCC2CCC[N-]C12.[O]=[V][OH]` (stereo not given), for which the GI50 is 6.09 µM in the experiment on LOX IMVI melanoma; 2.98 µM in the experiment on OVCAR-8 ovarian; 0.359 µM with OVCAR-3 ovarian; 2.66 µM with HCT-116 colon; 2.87 µM with MCF7 breast; 6.25 µM in the experiment on SK-OV-3 ovarian. Moreover, the GI50 in the experiment with HL-60(TB) leukemia is 2.61 µM; in the experiment on MDA-MB-435 it was 7.44 µM; in the experiment on MOLT-4 leukemia it was 1.23 µM; with CCRF-CEM leukemia it was 0.493 µM. Besides, the TGI in the experiment on LOX IMVI melanoma is 33.6 µM; with OVCAR-8 ovarian, over 100 µM; in the experiment with OVCAR-3 ovarian it was 2.27 µM; with HCT-116 colon, 11.5 µM; in the experiment with MCF7 breast, 10.1 µM; with SK-OV-3 ovarian it was 55.9 µM. Further, the TGI in the experiment with HL-60(TB) leukemia was 8.4 µM; in the experiment with MDA-MB-435 it was over 100 µM; with MOLT-4 leukemia, 10.6 µM; with CCRF-CEM leukemia, 12.2 µM.
In the case of `CCC(=O)N1C/C(=C/c2ccc(Br)cc2)C(=O)/C(=C/c2ccc(Br)cc2)C1`, the GI50 in the experiment with LOX IMVI melanoma was under 0.0333 µM; in the experiment on OVCAR-8 ovarian, 0.499 µM; in the experiment with OVCAR-3 ovarian it was 0.588 µM; in the experiment with HCT-116 colon, under 0.0417 µM; in the experiment with MCF7 breast it was 0.271 µM; in the experiment on SK-OV-3 ovarian it was 1.73 µM. Also, the GI50 is 1.86 µM with HL-60(TB) leukemia, 0.524 µM in the experiment on MDA-MB-435, 1.06 µM with MOLT-4 leukemia and 0.88 µM in the experiment with CCRF-CEM leukemia. Also, the TGI was found to be 0.248 µM in the experiment with LOX IMVI melanoma; 2.88 µM in the experiment on OVCAR-8 ovarian; 1.56 µM in the experiment with OVCAR-3 ovarian; 0.311 µM in the experiment with HCT-116 colon; 1.56 µM in the experiment on MCF7 breast; 5.98 µM in the experiment on SK-OV-3 ovarian. In addition, the TGI in the experiment with HL-60(TB) leukemia was found to be 5.63 µM; in the experiment with MDA-MB-435, 1.46 µM; in the experiment with MOLT-4 leukemia it was 5.69 µM; with CCRF-CEM leukemia, 4.6 µM.
Turning to `O=C1Nc2ccccc2/C1=C\c1nc(-c2ccccc2F)n2ccccc12`, the GI50 was 4.15 µM with LOX IMVI melanoma; 2.49 µM in the experiment with OVCAR-8 ovarian; 1.9 µM with OVCAR-3 ovarian; 1.97 µM in the experiment with HCT-116 colon; 2.1 µM in the experiment on MCF7 breast; 3.46 µM in the experiment on SK-OV-3 ovarian. The GI50 in the experiment with HL-60(TB) leukemia was 24.9 µM; in the experiment on MDA-MB-435, 3.95 µM; in the experiment on MOLT-4 leukemia, 28.2 µM; with CCRF-CEM leukemia it was 91.1 µM. Further, the TGI in the experiment on LOX IMVI melanoma was 15.6 µM; with OVCAR-8 ovarian, 8.12 µM; in the experiment with OVCAR-3 ovarian, 4.38 µM; in the experiment with HCT-116 colon, 4.04 µM; in the experiment on MCF7 breast it was 12.2 µM; in the experiment on SK-OV-3 ovarian, 12.4 µM. Besides, the TGI in the experiment on HL-60(TB) leukemia was over 100 µM; in the experiment with MDA-MB-435, 16.1 µM; in the experiment with MOLT-4 leukemia, over 100 µM; in the experiment on CCRF-CEM leukemia it was over 100 µM.

For the origin of these results see PubChem BioAssay (NCI).
